Test results published in ChEMBL document CHEMBL1629662, “Antimicrobial activity of prulifloxacin tested against a worldwide collection of gastroenteritis-producing pathogens, including those causing traveler's diarrhea” (2009).
Converted amounts (≈) assume the structure as drawn.

Key:
[1] = system: Salmonella sp.; test: Antibacterial activity against Salmonella sp. assessed as growth inhibition at 0.004 ug/ml by broth microdilution method; format: functional
[2] = system: Yersinia enterocolitica; test: Antibacterial activity against Yersinia enterocolitica by broth microdilution method; format: functional
[3] = Antibacterial activity against Salmonella enterica serovar Newport by broth microdilution method; format: functional, Salmonella enterica subsp. enterica serovar Newport
[4] = system: Escherichia coli; test: Antibacterial activity against enterotoxigenic Escherichia coli by broth microdilution method; format: functional
[5] = system: Salmonella sp.; test: Antibacterial activity against Salmonella sp. assessed as growth inhibition at =<0.002 ug/ml by broth microdilution method; format: functional
[6] = system: Yersinia enterocolitica; test: Antibacterial activity against Yersinia enterocolitica assessed as percent susceptible isolates by broth microdilution method; format: functional
[7] = system: Aeromonas caviae; test: Antibacterial activity against Aeromonas caviae by broth microdilution method; format: functional
[8] = system: Shigella sp.; test: Antibacterial activity against Shigella sp. assessed as growth inhibition at 0.008 ug/ml by broth microdilution method; format: functional
[9] = system: Aeromonas veronii; test: Antibacterial activity against Aeromonas veronii by broth microdilution method; format: functional
[10] = Antibacterial activity against Salmonella enterica serovar Heidelberg by broth microdilution method; format: functional, Salmonella enterica subsp. enterica serovar Heidelberg
[11] = system: Yersinia sp.; test: Antibacterial activity against Yersinia sp. assessed as growth inhibition at 0.06 ug/ml by broth microdilution method; format: functional; conditions: Yersinia sp. (in: enterobacteria)
[12] = system: Shigella boydii; test: Antibacterial activity against Shigella boydii assessed as percent susceptible isolates by broth microdilution method; format: functional; conditions: pooled result: one value given for 3 cell lines, strains, targets or settings
[13] = system: Vibrio vulnificus; test: Antibacterial activity against Vibrio vulnificus assessed as percent resistant isolates by broth microdilution method; format: functional
[14] = system: Yersinia pseudotuberculosis; test: Antibacterial activity against Yersinia pseudotuberculosis by broth microdilution method; format: functional
[15] = system: Aeromonas sp.; test: Antibacterial activity against Aeromonas sp. assessed as growth inhibition at 0.004 ug/ml by broth microdilution method; format: functional
[16] = system: Vibrio sp.; test: Antibacterial activity against Vibrio sp. assessed as percent resistant isolates by broth microdilution method; format: functional
[17] = system: Salmonella typhi; test: Antibacterial activity against Salmonella enterica serovar Typhi by broth microdilution method; format: functional, Salmonella enterica subsp. enterica serovar Typhi
[18] = system: Salmonella sp.; test: Antibacterial activity against Salmonella sp. assessed as growth inhibition at 0.12 ug/ml by broth microdilution method; format: functional
[19] = system: Campylobacter jejuni; test: Antibacterial activity against Campylobacter jejuni by broth microdilution method; format: functional
[20] = system: Escherichia coli; test: Antibacterial activity against Escherichia coli assessed as growth inhibition at =>4 ug/ml by broth microdilution method; format: functional
[21] = system: Campylobacter coli; test: Antibacterial activity against Campylobacter coli by broth microdilution method; format: functional
[22] = system: Vibrio sp.; test: Antibacterial activity against Vibrio sp. by broth microdilution method; format: functional
[23] = system: Vibrio vulnificus; test: Antibacterial activity against Vibrio vulnificus by broth microdilution method; format: functional
[24] = system: Vibrio fluvialis; test: Antibacterial activity against Vibrio fluvialis assessed as percent susceptible isolates by broth microdilution method; format: functional
[25] = system: Yersinia sp.; test: Antibacterial activity against Yersinia sp. assessed as growth inhibition at 0.03 ug/ml by broth microdilution method; format: functional; conditions: Yersinia sp. (in: enterobacteria)
[26] = system: Salmonella enteritidis; test: Antibacterial activity against Salmonella enterica serovar Enteritidis by broth microdilution method; format: functional, Salmonella enterica subsp. enterica serovar Enteritidis
[27] = system: Escherichia coli; test: Antibacterial activity against enteroaggregative Escherichia coli assessed as percent resistant isolates by broth microdilution method; format: functional
[28] = system: Salmonella sp.; test: Antibacterial activity against Salmonella sp. assessed as growth inhibition at 0.03 ug/ml by broth microdilution method; format: functional
[29] = system: Escherichia coli; test: Antibacterial activity against enteropathogenic Escherichia coli by broth microdilution method; format: functional
[30] = system: Aeromonas sp.; test: Antibacterial activity against Aeromonas sp. assessed as growth inhibition at =<0.002 ug/ml by broth microdilution method; format: functional
[31] = system: Aeromonas hydrophila; test: Antibacterial activity against Aeromonas hydrophila assessed as percent susceptible isolates by broth microdilution method; format: functional
[32] = system: Vibrio parahaemolyticus; test: Antibacterial activity against Vibrio parahaemolyticus assessed as percent susceptible isolates by broth microdilution method; format: functional
[33] = system: Salmonella enteritidis; test: Antibacterial activity against Salmonella enterica serovar Enteritidis assessed as percent susceptible isolates by broth microdilution method; format: functional, Salmonella enterica subsp. enterica serovar Enteritidis; conditions: pooled result: one value given for 5 cell lines, strains, targets or settings
[34] = system: Vibrio sp.; test: Antibacterial activity against Vibrio sp. assessed as growth inhibition at 0.03 ug/ml by broth microdilution method; format: functional
[35] = system: Salmonella paratyphi; test: Antibacterial activity against Salmonella enterica serovar Paratyphi by broth microdilution method; format: functional, Salmonella enterica subsp. enterica serovar Paratyphi A
[36] = system: Salmonella sp.; test: Antibacterial activity against Salmonella sp. assessed as growth inhibition at 0.008 ug/ml by broth microdilution method; format: functional
[37] = system: Escherichia coli; test: Antibacterial activity against Escherichia coli assessed as percent resistant isolates by broth microdilution method; format: functional
[38] = system: Campylobacter sp.; test: Antibacterial activity against Campylobacter sp. assessed as growth inhibition at 0.12 ug/ml by broth microdilution method; format: functional
[39] = system: Aeromonas sobria; test: Antibacterial activity against Aeromonas sobria by broth microdilution method; format: functional
[40] = system: Shigella dysenteriae; test: Antibacterial activity against Shigella dysenteriae assessed as percent susceptible isolates by broth microdilution method; format: functional
[41] = system: Vibrio alginolyticus; test: Antibacterial activity against Vibrio alginolyticus by broth microdilution method; format: functional
[42] = system: Campylobacter jejuni; test: Antibacterial activity against Campylobacter jejuni assessed as percent susceptible isolates by broth microdilution method; format: functional; conditions: pooled result: one value given for 2 cell lines, strains, targets or settings
[43] = Antibacterial activity against Salmonella enterica serovar Choleraesuis assessed as percent susceptible isolates by broth microdilution method; format: functional, Salmonella enterica subsp. enterica serovar Choleraesuis
[44] = system: Aeromonas sp.; test: Antibacterial activity against Aeromonas sp. assessed as growth inhibition at 0.5 ug/ml by broth microdilution method; format: functional
[45] = system: Aeromonas hydrophila; test: Antibacterial activity against Aeromonas hydrophila by broth microdilution method; format: functional
[46] = system: Aeromonas veronii; test: Antibacterial activity against Aeromonas veronii assessed as percent resistant isolates by broth microdilution method; format: functional
[47] = system: Salmonella typhi; test: Antibacterial activity against Salmonella enterica serovar Typhi assessed as percent susceptible isolates by broth microdilution method; format: functional, Salmonella enterica subsp. enterica serovar Typhi
[48] = system: Escherichia coli; test: microbe, parasite or virus in culture; format: functional
[49] = system: Vibrio fluvialis; test: Antibacterial activity against Vibrio fluvialis by broth microdilution method; format: functional
[50] = Escherichia coli, read-out: MIC50
[51] = Escherichia coli, read-out: MIC90

Work on `CC1Sc2c(C(=O)O)c(=O)c3cc(F)c(N4CCNCC4)cc3n21` (stereo not given) [ULIFLOXACIN] yielded an inhibition at 0.004 µg/mL [1] of 10%, an MIC [2] of 8 ng/mL (≈ 0.0229 µM) and an MIC50 [2] of 8 ng/mL (≈ 0.0229 µM). For the same molecule, the MIC90 [2] was 16 ng/mL (≈ 0.0458 µM), the MIC50 [3] was 8 ng/mL (≈ 0.0229 µM) and the MIC90 [3] was 30 ng/mL (≈ 0.0859 µM). For the same molecule, the MIC [4] was 4 ng/mL (≈ 0.0114 µM), the MIC50 [4] was 4 ng/mL (≈ 0.0114 µM) and the MIC90 [4] was 8 ng/mL (≈ 0.0229 µM). For the same molecule, the MIC ([4]; Escherichia coli, read-out: MIC) was 4 ng/mL (≈ 0.0114 µM), the MIC50 [4, 50] was 4 ng/mL (≈ 0.0114 µM) and the MIC90 [4, 51] was 8 ng/mL (≈ 0.0229 µM). For the same molecule, the “inhibition (INH)” value [5] was 1%, the Activity [6] was 100% and the MIC50 [7] was 4 ng/mL (≈ 0.0114 µM). For the same molecule, the MIC90 [7] was 60 ng/mL (≈ 0.172 µM), the inhibition at 0.008 µg/mL [8] was 95% and the MIC50 [9] was 4 ng/mL (≈ 0.0114 µM). For the same molecule, the MIC90 [9] was 60 ng/mL (≈ 0.172 µM), the MIC50 [10] was 8 ng/mL (≈ 0.0229 µM) and the MIC90 [10] was 30 ng/mL (≈ 0.0859 µM). The inhibition at 0.06 µg/mL [11] was 98%, the Activity [12] was 100% and the Activity [13] was 0%. For the same molecule, the MIC [14] was 8 ng/mL (≈ 0.0229 µM), the MIC50 [14] was 8 ng/mL (≈ 0.0229 µM) and the MIC90 [14] was 16 ng/mL (≈ 0.0458 µM). For the same molecule, the inhibition at 0.004 µg/mL [15] was 55%, the Activity [16] was 0% and the MIC50 [17] was 8 ng/mL (≈ 0.0229 µM). It also gave an MIC90 [17] of 30 ng/mL (≈ 0.0859 µM), an inhibition at 0.12 µg/mL [18] of 100% and an MIC50 [19] of 30 ng/mL (≈ 0.0859 µM). For the same molecule, the MIC90 [19] was greater than 2000 ng/mL, the “inhibition (INH)” value [20] was 100% and the MIC50 [21] was 30 ng/mL (≈ 0.0859 µM). For the same molecule, the MIC90 [21] was greater than 2000 ng/mL, the MIC50 [22] was 16 ng/mL (≈ 0.0458 µM) and the MIC90 [22] was 30 ng/mL (≈ 0.0859 µM). It also gave an MIC50 [23] of 16 ng/mL (≈ 0.0458 µM), an MIC90 [23] of 30 ng/mL (≈ 0.0859 µM) and an Activity [24] of 100%. It also gave an inhibition at 0.03 µg/mL [25] of 93%, an MIC50 [26] of 8 ng/mL (≈ 0.0229 µM) and an MIC90 [26] of 30 ng/mL (≈ 0.0859 µM). For the same molecule, the Activity [27] was 0%, the inhibition at 0.03 µg/mL [28] was 91% and the MIC [29] was 4 ng/mL (≈ 0.0114 µM). For the same molecule, the MIC50 [29] was 8 ng/mL (≈ 0.0229 µM), the MIC90 [29] was 8 ng/mL (≈ 0.0229 µM) and the MIC50 [29, 50] was 8 ng/mL (≈ 0.0229 µM). For the same molecule, the MIC90 [29, 51] was 8 ng/mL (≈ 0.0229 µM), the “inhibition (INH)” value [30] was 16% and the Activity [31] was 98%. For the same molecule, the Activity [32] was 100%, the Activity [33] was 100% and the inhibition at 0.03 µg/mL [34] was 100%. For the same molecule, the MIC50 [35] was 8 ng/mL (≈ 0.0229 µM), the MIC90 [35] was 30 ng/mL (≈ 0.0859 µM) and the inhibition at 0.008 µg/mL [36] was 65%. For the same molecule, the Activity [37] was 3%, the inhibition at 0.12 µg/mL [38] was 82% and the MIC50 [39] was 4 ng/mL (≈ 0.0114 µM). For the same molecule, the MIC90 [39] was 60 ng/mL (≈ 0.172 µM), the Activity [40] was 100% and the MIC50 [41] was 16 ng/mL (≈ 0.0458 µM). The MIC90 [41] was 30 ng/mL (≈ 0.0859 µM), the Activity [42] was 84.4% and the Activity [43] was 100%. It also gave an inhibition at 0.5 µg/mL [44] of 98%, an MIC50 [45] of 4 ng/mL (≈ 0.0114 µM) and an MIC90 [45] of 60 ng/mL (≈ 0.172 µM). For the same molecule, the Activity [46] was 2%, the Activity [47] was 100% and the MIC50 [48] was 8 ng/mL (≈ 0.0229 µM). The MIC90 [48] was 8 ng/mL (≈ 0.0229 µM), the MIC50 [48, 50] was 8 ng/mL (≈ 0.0229 µM) and the MIC90 [48, 51] was 8 ng/mL (≈ 0.0229 µM). It also gave an MIC50 [49] of 16 ng/mL (≈ 0.0458 µM) and an MIC90 [49] of 30 ng/mL (≈ 0.0859 µM).
